The test system of this experiment is BDF1 mice, P388 leukemia ip, median survival T/C. Nature of the experiment: NCI In Vivo Anticancer Drug Screen. Data for tumor model P388 Leukemia (intraperitoneal) in B6D2F1 (BDF1) mice. The note with it: endpoint: median survival time, higher = longer survival. An outline of the steps:
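Survival ratio, drug arm over vehicle arm, in mice with a transplanted tumour.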

Where [1] appears, read: dose: 100.0 mg/kg/injection, schedule: Q04DX003 (ip), vehicle: saline with Tween-80.
[2] abbreviates: dose: 200.0 mg/kg/injection, schedule: Q04DX003 (ip), vehicle: saline with Tween-80.
The mark [3] stands for this setting: dose: 400.0 mg/kg/injection, schedule: Q04DX003 (ip), vehicle: saline with Tween-80.
The mark [4] stands for this setting: dose: 50.0 mg/kg/injection, schedule: Q01DX009 (ip), vehicle: saline with Tween-80.
Setting [5] is: dose: 100.0 mg/kg/injection, schedule: Q01DX009 (ip), vehicle: saline with Tween-80.
The mark [6] stands for this setting: dose: 100.0 mg/kg/injection, schedule: Q04DX003 (ip), vehicle: saline.
The mark [7] stands for this setting: dose: 200.0 mg/kg/injection, schedule: Q01DX009 (ip), vehicle: saline with Tween-80.
Setting [8] is: dose: 200.0 mg/kg/injection, schedule: Q04DX003 (ip), vehicle: saline.
The mark [9] stands for this setting: dose: 400.0 mg/kg/injection, schedule: Q04DX003 (ip), vehicle: saline.
Setting [10] is: dose: 12.5 mg/kg/injection, schedule: Q04DX003 (ip), vehicle: saline.
Setting [11] is: dose: 25.0 mg/kg/injection, schedule: Q04DX003 (ip), vehicle: saline.
Where [12] appears, read: dose: 50.0 mg/kg/injection, schedule: Q04DX003 (ip), vehicle: saline.
The mark [13] stands for this setting: dose: 100.0 mg/kg/injection, schedule: Q01DX009 (ip), vehicle: Klucel (hydroxypropylcellulose) (HPC).
Where [14] appears, read: dose: 100.0 mg/kg/injection, schedule: Q04DX003 (ip), vehicle: Klucel (hydroxypropylcellulose) (HPC).
Where [15] appears, read: dose: 200.0 mg/kg/injection, schedule: Q01DX009 (ip), vehicle: Klucel (hydroxypropylcellulose) (HPC).
Where [16] appears, read: dose: 400.0 mg/kg/injection, schedule: Q04DX003 (ip), vehicle: Klucel (hydroxypropylcellulose) (HPC).

“And” between values parts separate entries of the source, which are not always exact repeats. Equal entries are not always repeated. Inconclusive results and toxic doses are left out.

As for `CC(/C=C/c1ccccc1)=Nc1ccc(C)cc1`, the T/C reads like this: under setting [1], 104 % of control; under setting [2], 101 % of control; under setting [3], 104 % of control.
For `CC1(C)O[C@]2(C)CC[C@@H]1[C@@H](O)[C@@H]2N1CCOCC1`, the T/C was 108 % of control (dose: 50.0 mg/kg/injection, schedule: Q01DX005 (ip), vehicle: saline); 106 % of control (dose: 100.0 mg/kg/injection, schedule: Q01DX005 (ip), vehicle: saline); 104 % of control (dose: 200.0 mg/kg/injection, schedule: Q01DX005 (ip), vehicle: saline).
Turning to `O=CN(c1ccccc1)c1ccccc1`, the T/C runs as follows: under setting [4], 110 % of control; (dose: 100.0 mg/kg/injection, schedule: Q01DX001 (ip), vehicle: other) 104 % of control; under setting [5], 95 % of control; (dose: 100.0 mg/kg/injection, schedule: Q04DX003 (ip), vehicle: other) 91 % of control; under setting [6], 95 % of control; (dose: 175.0 mg/kg/injection, schedule: Q04DX003 (ip), vehicle: saline with Tween-80) 115 % of control. The T/C (dose: 200.0 mg/kg/injection, schedule: Q01DX001 (ip), vehicle: other) is 108 % of control; the T/C under setting [7] is 100 % of control; the T/C (dose: 200.0 mg/kg/injection, schedule: Q04DX003 (ip), vehicle: other) is 116 % of control; the T/C under setting [8] was 100 % of control; the T/C (dose: 400.0 mg/kg/injection, schedule: Q01DX001 (ip), vehicle: other) is 87 % of control; the T/C (dose: 400.0 mg/kg/injection, schedule: Q01DX009 (ip), vehicle: saline with Tween-80) is 105 % of control. For the same molecule, the T/C reads like this: under setting [3], 150 % of control; under setting [9], 86 % of control.
Consider `CCn1cnc2c(SC3CCCC3)ncnc21`, for which the T/C reads like this: (dose: 100.0 mg/kg/injection, schedule: Q04DX003 (ip), vehicle: saline sonified) 100 % of control; (dose: 200.0 mg/kg/injection, schedule: Q04DX003 (ip), vehicle: saline sonified) 100 % of control; (dose: 400.0 mg/kg/injection, schedule: Q04DX003 (ip), vehicle: saline sonified) 100 % of control.
Take `C=CC(=O)NC(Cc1ccccc1)C(=O)O` (stereo not drawn): the T/C runs as follows: under setting [4], 102 % of control; under setting [5], 98 % of control; under setting [7], 99 % of control.
For `CCCCCCCCNC12CC3CC(CC(C3)C1)C2`, the T/C (dose: 6.25 mg/kg/injection, schedule: Q04DX003 (ip), vehicle: saline) was 104 % of control; the T/C under setting [10] is 108 % of control; the T/C under setting [11] was 116 % of control; the T/C under setting [12] is 100 % of control; the T/C under setting [6] is 108 % of control.
As for `N#CCSc1ncnc2nc[nH]c12`, the T/C runs as follows: (dose: 30.0 mg/kg/injection, schedule: Q01DX010 (ip), vehicle: saline) 95 % of control and 100 % of control; (dose: 60.0 mg/kg/injection, schedule: Q01DX010 (ip), vehicle: saline) 100 % of control; (dose: 120.0 mg/kg/injection, schedule: Q01DX010 (ip), vehicle: saline) 100 % of control.
As for `Nc1ccn(C2OC(COC3CCCCO3)C(OC3CCCCO3)C2OC2CCCCO2)c(=O)n1` (stereo not drawn), the T/C by setting is: (dose: 50.0 mg/kg/injection, schedule: Q01DX007 (ip), vehicle: saline) 108 % of control; (dose: 100.0 mg/kg/injection, schedule: Q01DX007 (ip), vehicle: saline) 94 % of control; under setting [6], 90 % of control; (dose: 200.0 mg/kg/injection, schedule: Q01DX007 (ip), vehicle: saline) 94 % of control; under setting [8], 86 % of control; (dose: 400.0 mg/kg/injection, schedule: Q01DX007 (ip), vehicle: saline) 100 % of control. The T/C under setting [9] is 104 % of control.
Take `COc1ccc(OC)c(/C=C/[N+](=O)[O-])c1`: the T/C was 108 % of control (dose: 12.5 mg/kg/injection, schedule: Q01DX009 (ip), vehicle: Klucel (hydroxypropylcellulose) (HPC)); 113 % of control and 120 % of control (dose: 25.0 mg/kg/injection, schedule: Q01DX009 (ip), vehicle: Klucel (hydroxypropylcellulose) (HPC)); 113 % of control (dose: 50.0 mg/kg/injection, schedule: Q01DX009 (ip), vehicle: Klucel (hydroxypropylcellulose) (HPC)); 116 % of control under setting [13].
Consider `Cc1cc(N(C)C)ccc1C=O`, for which the T/C under setting [13] is 100 % of control; the T/C under setting [14] was 100 % of control; the T/C under setting [15] was 95 % of control; the T/C (dose: 400.0 mg/kg/injection, schedule: Q01DX009 (ip), vehicle: Klucel (hydroxypropylcellulose) (HPC)) was 109 % of control; the T/C under setting [16] was 91 % of control.
Take `COC(=O)C(Sc1ccc(Cl)cc1)C1SC(=S)N(Cc2ccccc2)C1=O` (stereo not drawn): the T/C reads like this: under setting [4], 104 % of control; under setting [5], 118 % of control; under setting [7], 109 % of control.
Take `Cc1c(C)c2ccc(N)cc2[nH]c1=O`: the T/C reads like this: (dose: 2.0 mg/kg/injection, schedule: Q01DX009 (ip), vehicle: saline) 118 % of control; (dose: 4.0 mg/kg/injection, schedule: Q01DX009 (ip), vehicle: saline) 105 % of control; (dose: 8.0 mg/kg/injection, schedule: Q01DX009 (ip), vehicle: saline) 99 % of control; (dose: 16.0 mg/kg/injection, schedule: Q01DX009 (ip), vehicle: saline) 118 % of control; under setting [11], 98 % of control; under setting [12], 106 % of control. Moreover, the T/C is 106 % of control under setting [6], 104 % of control under setting [8] and 107 % of control under setting [9].
With `COc1ccccc1NC(=O)CSC(N)=O`, the T/C under setting [13] was 110 % of control; the T/C under setting [15] was 120 % of control; the T/C (dose: 264.0 mg/kg/injection, schedule: Q01DX009 (ip), vehicle: Klucel (hydroxypropylcellulose) (HPC)) is 113 % of control and 120 % of control.
`Cc1nnc2ncnn2c1N(C)c1ccccc1`: the T/C reads like this: (dose: 50.0 mg/kg/injection, schedule: Q04DX003 (ip), vehicle: saline with Tween-80) 100 % of control; under setting [1], 95 % of control; under setting [2], 100 % of control.
With `COc1cc(/C=N\N=C\c2ccc(O)c(OC)c2)ccc1O`, the T/C (dose: 100.0 mg/kg/injection, schedule: Q01DX001 (ip), vehicle: saline with Tween-80) is 100 % of control; the T/C (dose: 200.0 mg/kg/injection, schedule: Q01DX001 (ip), vehicle: saline with Tween-80) was 104 % of control; the T/C (dose: 400.0 mg/kg/injection, schedule: Q01DX001 (ip), vehicle: saline with Tween-80) was 100 % of control.
As for `[NH-]CC(=O)[N-]CC(=O)O.[NH-]CC(=O)[N-]CC(=O)O.[Ni]`, the T/C (dose: 3.0 mg/kg/injection, schedule: Q01DX009 (ip), vehicle: saline) is 100 % of control; the T/C (dose: 6.0 mg/kg/injection, schedule: Q01DX009 (ip), vehicle: saline) was 103 % of control; the T/C (dose: 12.0 mg/kg/injection, schedule: Q01DX009 (ip), vehicle: saline) is 116 % of control; the T/C under setting [10] is 104 % of control; the T/C (dose: 18.0 mg/kg/injection, schedule: Q01DX009 (ip), vehicle: saline) is 110 % of control; the T/C under setting [11] was 109 % of control. Moreover, the T/C under setting [12] was 100 % of control and 118 % of control.
On to `Cc1c(C(=O)O)nc(CC(O)C(Cl)(Cl)Cl)[nH]c1=O` (stereo not drawn), for which the T/C reads like this: (dose: 25.0 mg/kg/injection, schedule: Q04DX003 (ip), vehicle: Klucel (hydroxypropylcellulose) (HPC)) 98 % of control; (dose: 50.0 mg/kg/injection, schedule: Q04DX003 (ip), vehicle: Klucel (hydroxypropylcellulose) (HPC)) 97 % of control; under setting [14], 103 % of control; (dose: 200.0 mg/kg/injection, schedule: Q04DX003 (ip), vehicle: Klucel (hydroxypropylcellulose) (HPC)) 100 % of control; under setting [16], 96 % of control.

The record behind these values is PubChem BioAssay AID328 (DTP/NCI, 2004).
